The results in this text go back to patent US20250145600A1, “2-((4-((S)-2-(4-CHLORO-2-FLUOROPHENYL)-2-METHYLBENZO[D][1,3]DIOXOL-4-YL)PIPERIDIN-1-YL)METHYL)-1-(((S)-OXETAN-2-YL)METHYL)-1H-IMIDAZOLE DERIVATIVES AS ACTIVATORS OF THE GLP1 RECEPTOR FOR THE TREATMENT OF OBESITY” (Novartis AG, priority 2022, published 2025).

For the assay, the target named is human GLP1R (hGLP1R) (Homo sapiens, UniProt P43220). Nature of the assay: Human GLP1R cAMP agonist assay (GloSensor cAMP Assay). It counts as cell-based. The following applies: HEK293-SNAP-hGLP1R-GloSensor cells; for Emax: cAMP activity as percent of GLP1 (7-36) EC100 control; for EC50: intracellular cAMP, 12 min at rt. As to the method:
Compounds of formula (I) according to the invention were tested in the following cellular assays that measure the intracellular cAMP concentration, beta-arrestin recruitment and receptor internalization. The cAMP is generated by the activation of GLP1R. The extent to which the GLP1R is internalized into the cell and away from the plasma membrane following activation is also shown in Table 2. EC50 for each assay is defined as the concentration of the compound that leads to half of the maximum response (after baseline correction). Emax is defined as the maximum response observed for the test compound, normalized to the maximum response observed for the endogenous ligand (GLP1(7-36)) to GLP1R.
Human GLP1R cAMP Agonist Assay
The agonist activity of compounds was determined using the GloSensor™ cAMP Assay (Promega Corp.), which measures changes in the intracellular concentration of cAMP after ligand activation of GPCRs. The assay uses a biosensor encoded by pGloSensor™-22F cAMP plasmid (Promega, cat #E2301) with cAMP binding domains fused to a mutant form of Photinus pyralis luciferase. Binding to cAMP causes conformational changes that promote large increases in light output, which can be measured by a luminescence detector. HEK293-SNAP-hGLP1R-GloSensor cells stably overexpressing the human GLP1 receptor (hGLP1R) and pGloSensor™-22F were seeded in white 384-well poly-D-Lysine coated plates (Greiner Bio One, cat #781945) in CO2-independent media (Gibco cat #18045-088 with 1.0% FBS, 2 mM L-glutamine, penicillin and streptomycin) and incubated overnight at 37° C., 5% CO2 with humidity. The assay was started the following morning by adding an equal volume of CO2-independent media containing 4% v/v dilution of the GloSensor substrate (Promega, cat #E1291) to all wells. The cell plate was incubated at rt for 2 h in the dark. The Biomek 7 (Beckman Coulter) instrument was used for the liquid handling steps. To generate duplicate dose response curves, 3-fold serially diluted compounds were added in to the cell assay plate to a final volume of 60 μL with final concentrations ranging from 30 μM through 0.06 μM in CO2-independent media containing 0.1% BSA, 0.5 mM IBMX and 0.4% DMSO. In the same plate and assay buffer as the tested compounds, were EC100 control wells containing GLP1 (7-36) peptide (Bachem, cat #H-6795) at a final concentration of 2 nM and also EC0 control wells containing no peptide. This plate was incubated at rt in the dark for 12 min after adding the compounds to the cells. Luminescence was then measured with an Envision 2104 Multilabel reader with “TRF Light Unit, 337 nm” (PerkinElmer) using the Ultra-Sensitive protocol setting “384-well US luminescence detector” with the 384-well luminescence aperture, 0.1 seconds per well. cAMP activity was calculated as percent of the GLP1 (7-36) EC100 control wells: [(sample signal−mean EC0 signal)/(mean EC100 of GLP1 (7-36) signal−mean EC0 signal)}*100. Curve fitting for EC50 determinations was performed in the Helios module of the software package DAVID. The 4-parameter logistic model, Hill slope was used: y=Ainf+(A0−Ainf)/(1+(x/AC50)^Hill Slope) where y is the functional response; x is the compound concentration; A0 is the minimum value (at 0 dose); Ainf is the maximum value (at infinite dose); AC50 corresponds to the point of inflection (i.e. the point on the sigmoid shaped curve halfway between A0 and Ainf). The EC50 value was represented by the AC50 value calculated from Helios in μM. Emax is the maximal activity detected within the concentration range, derived from the fitted curve.
327 μL of Opti-MEM medium (Gibco, cat #31985-062) were mixed with 12 μL of FuGENE® HD (Promega, cat #E2311) and incubated at rt for 5 min. Then 8.2 μL (4 μg, 0.485 μg/μL solution) of pSNAP-hGLP1R plasmid (Cisbio, cat #PSNAP-GLP1) encoding human GLP1R (NCBI Reference Sequence: NM_002062.3) fused with Cisbio's SNAP tag was added in to the Fugene HD/Opti-MEM mix, and incubated at rt for 20 min. […]

As a reminder, the Emax is the size of the effect at its maximum, as opposed to the concentration needed. By EC50 is commonly meant the midpoint of the concentration-response curve. A high value points to a need for much substance.

human GLP1R (hGLP1R), sequence (P43220 24-463): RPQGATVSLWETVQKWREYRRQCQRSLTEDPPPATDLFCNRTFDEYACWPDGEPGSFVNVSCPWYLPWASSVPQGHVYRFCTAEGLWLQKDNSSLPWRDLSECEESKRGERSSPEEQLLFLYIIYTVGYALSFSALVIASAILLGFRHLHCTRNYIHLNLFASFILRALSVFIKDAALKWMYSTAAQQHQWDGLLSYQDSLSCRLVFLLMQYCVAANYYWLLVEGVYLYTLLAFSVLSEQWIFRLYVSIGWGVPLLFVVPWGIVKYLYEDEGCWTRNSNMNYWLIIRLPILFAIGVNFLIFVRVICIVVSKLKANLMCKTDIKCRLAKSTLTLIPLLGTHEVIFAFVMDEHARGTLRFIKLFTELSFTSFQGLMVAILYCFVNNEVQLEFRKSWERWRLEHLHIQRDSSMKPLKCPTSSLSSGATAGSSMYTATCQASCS

Take `Cc1nc(CN2CCC(c3cccc4c3O[C@@](C)(c3ccc(Cl)cc3F)O4)CC2)n(C[C@@H]2CCO2)c1-c1nc(C(=O)O)c(C)o1` [Compound C-1, 2-(2-((4-((S)-2-(4-chloro-2-fluorophenyl)-2-methylbenzo[d][1,3]dioxol-4-yl)piperidin-1-yl)methyl)-4-methyl-1-(((S)-oxetan-2-yl)methyl)-1H-imidazol-5-yl)-5-methyloxazole-4-carboxylic acid]: the Emax was found to be 110% and the EC50 worked out at 0.056 nM.

On to `C[C@]1(c2ccc(Cl)cc2F)Oc2cccc(C3CCN(Cc4nc(C(F)(F)F)c(-c5nc(C(=O)O)co5)n4C[C@@H]4CCO4)CC3)c2O1` [Compound C-4, 2-(2-((4-((S)-2-(4-chloro-2-fluorophenyl)-2-methylbenzo[d][1,3]dioxol-4-yl)piperidin-1-yl)methyl)-1-(((S)-oxetan-2-yl)methyl)-4-(trifluoromethyl)-1H-imidazol-5-yl)oxazole-4-carboxylic acid], for which the maximum response (Emax) amounted to 120% and the midpoint of the response, the EC50, lay at 0.298 nM.

In the case of `CCc1nc(CN2CCC(c3cccc4c3O[C@@](C)(c3ccc(Cl)cc3F)O4)CC2)n(C[C@@H]2CCO2)c1-c1nc(C(=O)O)co1` [Compound C-5, 2-(2-((4-((S)-2-(4-chloro-2-fluorophenyl)-2-methylbenzo[d][1,3]dioxol-4-yl)piperidin-1-yl)methyl)-4-ethyl-1-(((S)-oxetan-2-yl)methyl)-1H-imidazol-5-yl)oxazole-4-carboxylic acid], the maximal response (Emax) was 123% and a half-maximal effect (EC50) was put at 0.0418 nM.

`CCc1nc(CN2CCC(c3cccc4c3O[C@@](C)(c3ccc(Cl)cc3F)O4)CC2)n(C[C@H]2CCO2)c1-c1nc(C(=O)O)co1` [Compound C-7, 2-(2-((4-((S)-2-(4-chloro-2-fluorophenyl)-2-methylbenzo[d][1,3]dioxol-4-yl)piperidin-1-yl)methyl)-4-ethyl-1-(((R)-oxetan-2-yl)methyl)-1H-imidazol-5-yl)oxazole-4-carboxylic acid]: the maximal response (Emax) is 118% and the EC50 stood at 0.0351 nM.

With `Cc1nc(CN2CCC(c3cccc4c3O[C@@](C)(c3ccc(Cl)cc3F)O4)CC2)n(C[C@@H]2CCO2)c1-c1nc(C(=O)O)co1` [Compound C-9, 2-(2-((4-((S)-2-(4-chloro-2-fluorophenyl)-2-methylbenzo[d][1,3]dioxol-4-yl)piperidin-1-yl)methyl)-4-methyl-1-(((S)-oxetan-2-yl)methyl)-1H-imidazol-5-yl)oxazole-4-carboxylic acid], the Emax came to 107% and the concentration giving a half-maximal response (EC50) stood at 0.103 nM.

As for `CCc1oc(-c2c(C)nc(CN3CCC(c4cccc5c4O[C@@](C)(c4ccc(Cl)cc4F)O5)CC3)n2C[C@@H]2CCO2)nc1C(=O)O` [Compound C-10, 2-(2-((4-((S)-2-(4-chloro-2-fluorophenyl)-2-methylbenzo[d][1,3]dioxol-4-yl)piperidin-1-yl)methyl)-4-methyl-1-(((S)-oxetan-2-yl)methyl)-1H-imidazol-5-yl)-5-ethyloxazole-4-carboxylic acid], the Emax worked out at 108% and a half-maximal response (EC50) required 0.142 nM.

`Cc1oc(-c2nc(CN3CCC(c4cccc5c4O[C@@](C)(c4ccc(Cl)cc4F)O5)CC3)n(C[C@@H]3CCO3)c2C)nc1C(=O)O` [Compound C-12, 2-(2-((4-((S)-2-(4-chloro-2-fluorophenyl)-2-methylbenzo[d][1,3]dioxol-4-yl)piperidin-1-yl)methyl)-5-methyl-1-(((S)-oxetan-2-yl)methyl)-1H-imidazol-4-yl)-5-methyloxazole-4-carboxylic acid] came in with a maximal response (Emax) of 114% and an EC50 of 0.575 nM.

As to `Cc1c(-c2nc(C(=O)O)co2)nc(CN2CCC(c3cccc4c3O[C@@](C)(c3ccc(Cl)cc3F)O4)CC2)n1C[C@@H]1CCO1` [Compound C-13, 2-(2-((4-((S)-2-(4-chloro-2-fluorophenyl)-2-methylbenzo[d][1,3]dioxol-4-yl)piperidin-1-yl)methyl)-5-methyl-1-(((S)-oxetan-2-yl)methyl)-1H-imidazol-4-yl)oxazole-4-carboxylic acid], the Emax was 102% and the EC50 turned out to be 0.376 nM.

`Cc1c(-c2nc(C(F)(F)F)c(C(=O)O)o2)nc(CN2CCC(c3cccc4c3O[C@@](C)(c3ccc(Cl)cc3F)O4)CC2)n1C[C@@H]1CCO1` [Compound C-14, 2-(2-((4-((S)-2-(4-chloro-2-fluorophenyl)-2-methylbenzo[d][1,3]dioxol-4-yl)piperidin-1-yl)methyl)-5-methyl-1-(((S)-oxetan-2-yl)methyl)-1H-imidazol-4-yl)-4-(trifluoromethyl)oxazole-5-carboxylic acid] registered an Emax of 104% and a concentration for a half-maximal effect (EC50) of 0.492 nM.

As for `Cc1c(-c2cnc(C(=O)O)o2)nc(CN2CCC(c3cccc4c3O[C@@](C)(c3ccc(Cl)cc3F)O4)CC2)n1C[C@@H]1CCO1` [Compound C-16, 5-(2-((4-((S)-2-(4-chloro-2-fluorophenyl)-2-methylbenzo[d][1,3]dioxol-4-yl)piperidin-1-yl)methyl)-5-methyl-1-(((S)-oxetan-2-yl)methyl)-1H-imidazol-4-yl)oxazole-2-carboxylic acid], the Emax was 108% and the midpoint of the response, the EC50, lay at 0.171 nM.

As to `Cc1c(-c2cc(C(=O)O)n(C)n2)nc(CN2CCC(c3cccc4c3O[C@@](C)(c3ccc(Cl)cc3F)O4)CC2)n1C[C@@H]1CCO1` [Compound C-17, 3-(2-((4-((S)-2-(4-chloro-2-fluorophenyl)-2-methylbenzo[d][1,3]dioxol-4-yl)piperidin-1-yl)methyl)-5-methyl-1-(((S)-oxetan-2-yl)methyl)-1H-imidazol-4-yl)-1-methyl-1H-pyrazole-5-carboxylic acid], the Emax stood at 113% and the EC50 amounted to 0.754 nM.

As to `Cc1c(-c2coc(C(=O)O)n2)nc(CN2CCC(c3cccc4c3O[C@@](C)(c3ccc(Cl)cc3F)O4)CC2)n1C[C@@H]1CCO1` [Compound C-18, 4-(2-((4-((S)-2-(4-chloro-2-fluorophenyl)-2-methylbenzo[d][1,3]dioxol-4-yl)piperidin-1-yl)methyl)-5-methyl-1-(((S)-oxetan-2-yl)methyl)-1H-imidazol-4-yl)oxazole-2-carboxylic acid], the Emax stood at 115% and the EC50 was 0.188 nM.

`Cc1cc(-c2nc(CN3CCC(c4cccc5c4O[C@@](C)(c4ccc(Cl)cc4F)O5)CC3)n(C[C@@H]3CCO3)c2C)oc1C(=O)O` [Compound C-19, 5-(2-((4-((S)-2-(4-chloro-2-fluorophenyl)-2-methylbenzo[d][1,3]dioxol-4-yl)piperidin-1-yl)methyl)-5-methyl-1-(((S)-oxetan-2-yl)methyl)-1H-imidazol-4-yl)-3-methylfuran-2-carboxylic acid]: the maximal response (Emax) came out at 109% and the concentration for a half-maximal effect (EC50) was 0.377 nM.

The compound `Cc1nc(CN2CCC(c3cccc4c3O[C@@](C)(c3ccc(Cl)cc3F)O4)CC2)n(C[C@@H]2CCO2)c1-c1coc(C(=O)O)n1` [Compound C-20, 4-(2-((4-((S)-2-(4-chloro-2-fluorophenyl)-2-methylbenzo[d][1,3]dioxol-4-yl)piperidin-1-yl)methyl)-4-methyl-1-(((S)-oxetan-2-yl)methyl)-1H-imidazol-5-yl)oxazole-2-carboxylic acid] came in with an Emax of 112% and a concentration giving a half-maximal response (EC50) of 0.24 nM.
